Results as given in the supplement of paper PMC11061612.

Assays:
[1] = tested on: HCC-44 (Lung Adenocarcinoma); experiment: Bliss excess, mean over the matrix (fraction); higher = more synergy
How it was run: (§1)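 After 24 hours at 37°C and 5% CO2 in 1536-well plates, cells in DMEM/F12 or RPMI plus 10% FBS received two-drug dose matrices for 72 hours. Viability came from CellTiter-Glo 2.0 luminescence and was scaled as inhibition, anchored at 0 by vehicle wells and at 1 by blank wells. Combination Emax is taken as the second-highest inhibition in the matrix, and Bliss excess as the observed combination effect less EA + EB − EA·EB, with EA and EB the single-agent effects.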

[2] = tested on: NCI-H810 (Non-Small Cell Lung Carcinoma); experiment: as above
How it was run: as §1

[3] = tested on: OV-90 (Ovarian Carcinoma); experiment: as above
How it was run: as §1

[4] = tested on: FLO-1 (Esophageal Adenocarcinoma); experiment: as above
How it was run: as §1

[5] = tested on: NKM-1 (Acute Myeloid Leukemia); experiment: as above
How it was run: as §1

[6] = tested on: KYM-1 (Rhabdomyosarcoma); experiment: as above
How it was run: as §1

[7] = tested on: PC-14 (Lung Adenocarcinoma); experiment: as above
How it was run: as §1

[8] = tested on: SW684 (Other Solid Carcinomas); experiment: as above
How it was run: as §1

[9] = tested on: SK-MM-2 (Plasma Cell Myeloma); experiment: as above
How it was run: as §1

[10] = tested on: NCI-H1755 (Lung Adenocarcinoma); experiment: as above
How it was run: as §1

[11] = tested on: PANC-02-03 (Pancreatic Carcinoma); experiment: as above
How it was run: as §1

[12] = tested on: COLO-684 (Endometrial Carcinoma); experiment: as above
How it was run: as §1

[13] = tested on: Becker (Low Grade Glioma); experiment: as above
How it was run: as §1

[14] = tested on: CHL-1 (Melanoma); experiment: as above
How it was run: as §1

[15] = tested on: RMG-I (Ovarian Carcinoma); experiment: as above
How it was run: as §1

[16] = tested on: LAMA-84 (Chronic Myelogenous Leukemia); experiment: as above
How it was run: as §1

[17] = tested on: LOUCY (T-Lymphoblastic Leukemia); experiment: as above
How it was run: as §1

[18] = tested on: KYSE-70 (Esophageal Squamous Cell Carcinoma); experiment: as above
How it was run: as §1

[19] = tested on: EB-3 (Burkitt's Lymphoma); experiment: as above
How it was run: as §1

[20] = tested on: CML-T1 (Chronic Myelogenous Leukemia); experiment: as above
How it was run: as §1

[21] = tested on: HCC-44 (Lung Adenocarcinoma); experiment: combination Emax (second highest fraction inhibited in the dose matrix, 72 h); higher = more inhibition; extreme values may be limits of the assay
How it was run: as §1

[22] = tested on: NCI-H810 (Non-Small Cell Lung Carcinoma); experiment: as above
How it was run: as §1

[23] = tested on: OV-90 (Ovarian Carcinoma); experiment: as above
How it was run: as §1

[24] = tested on: FLO-1 (Esophageal Adenocarcinoma); experiment: as above
How it was run: as §1

[25] = tested on: NKM-1 (Acute Myeloid Leukemia); experiment: as above
How it was run: as §1

[26] = tested on: KYM-1 (Rhabdomyosarcoma); experiment: as above
How it was run: as §1

[27] = tested on: PC-14 (Lung Adenocarcinoma); experiment: as above
How it was run: as §1

[28] = tested on: SW684 (Other Solid Carcinomas); experiment: as above
How it was run: as §1

[29] = tested on: SK-MM-2 (Plasma Cell Myeloma); experiment: as above
How it was run: as §1

[30] = tested on: NCI-H1755 (Lung Adenocarcinoma); experiment: as above
How it was run: as §1

[31] = tested on: PANC-02-03 (Pancreatic Carcinoma); experiment: as above
How it was run: as §1

[32] = tested on: COLO-684 (Endometrial Carcinoma); experiment: as above
How it was run: as §1

[33] = tested on: Becker (Low Grade Glioma); experiment: as above
How it was run: as §1

[34] = tested on: CHL-1 (Melanoma); experiment: as above
How it was run: as §1

[35] = tested on: RMG-I (Ovarian Carcinoma); experiment: as above
How it was run: as §1

[36] = tested on: LAMA-84 (Chronic Myelogenous Leukemia); experiment: as above
How it was run: as §1

[37] = tested on: LOUCY (T-Lymphoblastic Leukemia); experiment: as above
How it was run: as §1

[38] = tested on: KYSE-70 (Esophageal Squamous Cell Carcinoma); experiment: as above
How it was run: as §1

[39] = tested on: EB-3 (Burkitt's Lymphoma); experiment: as above
How it was run: as §1

[40] = tested on: CML-T1 (Chronic Myelogenous Leukemia); experiment: as above
How it was run: as §1
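Wherever Bliss excess, mean over the matrix is given: after 72 h of two-drug dosing.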

Row | SMILES | Bliss excess [1] | Bliss excess [2] | Bliss excess [3] | Bliss excess [4] | Bliss excess [5] | Bliss excess [6] | Bliss excess [7] | Bliss excess [8] | Bliss excess [9] | Bliss excess [10] | Bliss excess [11] | Bliss excess [12] | Bliss excess [13] | Bliss excess [14] | Bliss excess [15] | Bliss excess [16] | Bliss excess [17] | Bliss excess [18] | Bliss excess [19] | Bliss excess [20] | combination Emax [21] | combination Emax [22] | combination Emax [23] | combination Emax [24] | combination Emax [25] | combination Emax [26] | combination Emax [27] | combination Emax [28] | combination Emax [29] | combination Emax [30] | combination Emax [31] | combination Emax [32] | combination Emax [33] | combination Emax [34] | combination Emax [35] | combination Emax [36] | combination Emax [37] | combination Emax [38] | combination Emax [39] | combination Emax [40]
1 | N#Cc1cnc(Nc2cc(NC[C@H]3CNCCO3)c(C(F)(F)F)cn2)cn1 [SRA737] + Nc1ccn([C@@H]2O[C@H](CO)[C@@H](O)C2(F)F)c(=O)n1 [Gemcitabine] (first compound max 10 µM, 7x7, partner max 0.3 µM) | 0.149 | 0.112 | -0.0752 | 0.124 | 0.0289 | -0.0294 | 0.0155 | 0.0294 | 0.112 | 0.0184 | 0.0122 | -0.0824 | 0.0323 | 0.0859 | -0.042 | 0.039 | 0.127 | 0.0297 | 0.125 | 0.0539 | 0.853 | 0.779 | 0.609 | 0.908 | 1 | 1 | 0.806 | 0.494 | 0.708 | 0.775 | 0.595 | 0.657 | 0.747 | 0.803 | 0.402 | 0.973 | 0.96 | 0.643 | 0.806 | 1
2 | N#Cc1cnc(Nc2cc(NC[C@H]3CNCCO3)c(C(F)(F)F)cn2)cn1 [SRA737] + O=c1[nH]cc(F)c(=O)[nH]1 [5-Fluorouracil] (first compound max 10 µM, 7x7, partner max 20 µM) | 0.125 | -0.0924 | -0.0306 | 0.0266 | -0.0812 | -0.0559 | -0.0109 | -0.0315 | -0.034 | 0.0078 | 0.0463 | -0.0334 | 0.0222 | -0.0351 | -0.0735 | -0.057 | -0.0122 | -0.0214 | -0.0561 | -0.0498 | 0.861 | 0.427 | 0.247 | 0.803 | 0.919 | 0.927 | 0.696 | 0.273 | 0.473 | 0.679 | 0.407 | 0.644 | 0.644 | 0.494 | 0.106 | 0.913 | 0.911 | 0.196 | 0.624 | 0.994
3 | Cc1nc(-c2cn3c(n2)-c2ccc(-c4cnn(C(C)(C)C(N)=O)c4)cc2OCC3)n(C(C)C)n1 [Taselisib] + O=C(Nc1ccc2[nH]nc(-c3ccncc3)c2c1)[C@@H]1CCN(CC(=O)N2CCN(c3ccc(-c4ncccn4)cc3)CC2)C1 [SCH772984] (first compound max 10 µM, 7x7, partner max 5 µM) | 0.0906 | -0.0601 | 0.0451 | 0.115 | 0.0911 | 0.0003 | 0.133 | 0.0283 | 0.0166 | 0.0655 | 0.126 | -0.0183 | 0.0868 | 0.0652 | -0.0455 | 0.11 | 0.0209 | 0.0674 | 0.0114 | 0.0342 | 0.983 | 0.104 | 0.827 | 0.737 | 1 | 0.671 | 0.973 | 0.823 | 0.349 | 0.991 | 0.906 | 0.63 | 0.757 | 0.575 | 0.599 | 0.999 | 0.627 | 0.686 | 0.493 | 0.493
4 | CC1(C)CCC(CN2CCN(c3ccc(C(=O)NS(=O)(=O)c4ccc(NCC5CCOCC5)c([N+](=O)[O-])c4)c(Oc4cnc5[nH]ccc5c4)c3)CC2)=C(c2ccc(Cl)cc2)C1 [Venetoclax] + CS(=O)(=O)CCNCc1ccc(-c2ccc3ncnc(Nc4ccc(OCc5cccc(F)c5)c(Cl)c4)c3c2)o1 [Lapatinib] (first compound max 1 µM, 7x7, partner max 10 µM) | -0.0326 | -0.065 | -0.0522 | -0.0279 | 0.108 | -0.0027 | -0.013 | -0.0757 | 0.0104 | -0.031 | -0.0113 | -0.0236 | -0.0179 | 0.0208 | 0.0483 | -0.0046 | 0.0911 | -0.0418 | -0.0478 | 0.0154 | 0.226 | 0.181 | 0.149 | 0.318 | 0.764 | 0.291 | 0.909 | 0.112 | 1 | 0.262 | 0.294 | 0.343 | 0.147 | 0.528 | 0.493 | 0.182 | 1 | 0.145 | 0.568 | 0.539
